Results taken from patent US9095578B2, “Adenylyl cyclases as novel targets for the treatment of infection by eukaryotic pathogens” (CORNELL RESEARCH FOUNDATION, INC., priority 2007, dated 2015).

Assays:
[1] = test system: adenylyl cyclase activity from Trypansoma brucei cell lysates; experiment: adenylyl cyclase assay on whole cell lysate of the bloodstream form; format: biochemical, Trypanosoma brucei; conditions: 15 mM MgCl2, 1 mM ATP, pH 7.5, 30° C.; for effect on adenylyl cyclase activity in whole cell lysate: any concentration
Method: The effect of these compounds on lysate activity was tested using whole cell lysate of the bloodstream form. Briefly, 5×10^6 cells were sonicated (on ice) in a lysis buffer consisting of 2 mM Tris-HCl, 15 mM KCl, 1 mM EDTA, 1 mM 2-mercaptoethanol, 100 μM PMSF, and 1 μg/mL aprotinin/leupeptin. Adenylyl cyclase assays were conducted using 20 μL of lysate/assay in the presence of 15 mM MgCl2 and 1 mM ATP in 50 mM Tris-HCl at pH=7.5 at 30° C. KH7.14 and KH7.15 had no effect on activity at any concentration while 100 μM KH7 stimulated AC activity in the whole cell lysate between 1.5-2 fold (see FIG. 2). The observation that KH7 prevents growth of bloodstream form cells in vitro via activation of adenylyl cyclase is consistent with the idea that the cAMP pathway controls the cell cycle.

[2] = test system: endogenous transmembrane adenylyl cyclases; experiment: in vivo cAMP accumulation assay, 293T cells + IBMX and Forskolin; format: cell-based, human; conditions: 293T + FSK column
Method: 293T cells or 4-4 cells (hsACt stably transfected into 293T) were grown in 75 cm2 Tissue Culture Flasks until nearly confluent using DMEM (10% FBS, 1% L-Glutamine, 1% Penicillin/Streptomycin). Cells were released from the flask with 3 ml of trypsin followed by addition of 7 ml of DMEM to neutralize the trypsin. Cells were mixed by pipetting up and down with 10 ml serological pipette. To a 3 ml aliquot of the cell mixture, 6 ml of DMEM (prewarmed to 37° C.) was added followed by thorough mixing by picking up the entire 9 mls using a repeat pipettor, and slowly pipetting out against the wall of container. This was repeated this ten times to ensure the mixture in homogenous. 100 μL of cells were then added to each pre-siliconized 1.7 ml Eppindorf tubes (Costar #3207) followed by a 60 min incubation at 37° C. and 5% CO2. This incubation was performed in 20-tube, round, floating racks (VWR #60986-100), which enable a quick transfer of the samples to a water bath, and the ability to mix several samples simultaneously. Following the incubation, 1 μL of the compound in DMSO was added (or just DMSO for controls). […] Following a 10 min incubation at room temperature, 30 μL of each sample was added to 70 μL of 0.1 N HCl and the cAMP levels were measured using the protocol for the Direct Cyclic AMP Kit (Assay Designs, Inc. # 901-066). […]

human sAC [3] = target: T1, human sAC (Homo sapiens, UniProt Q96PN6); experiment: in vivo cAMP accumulation assay, 4-4 cells (hsACt stably transfected into 293T) + IBMX; format: cell-based; conditions: 4-4, Basal column
T1 construct: made in house
T1 sequence (Q96PN6 1-469 limits assumed): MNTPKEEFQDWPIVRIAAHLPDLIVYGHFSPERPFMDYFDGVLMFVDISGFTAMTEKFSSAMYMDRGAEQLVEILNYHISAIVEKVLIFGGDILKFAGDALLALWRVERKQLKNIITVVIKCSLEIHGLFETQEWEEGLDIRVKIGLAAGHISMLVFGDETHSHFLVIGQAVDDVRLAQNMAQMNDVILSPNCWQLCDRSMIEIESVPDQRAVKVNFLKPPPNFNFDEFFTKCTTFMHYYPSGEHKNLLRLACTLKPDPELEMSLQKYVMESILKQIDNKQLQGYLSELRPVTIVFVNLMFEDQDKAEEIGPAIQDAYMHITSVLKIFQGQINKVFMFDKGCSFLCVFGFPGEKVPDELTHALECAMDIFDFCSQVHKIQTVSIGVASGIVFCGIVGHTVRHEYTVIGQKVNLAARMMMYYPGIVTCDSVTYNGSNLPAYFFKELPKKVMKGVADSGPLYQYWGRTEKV
Method: 293T cells or 4-4 […] stably transfected into 293T) were grown in 75 cm2 Tissue Culture Flasks until nearly confluent using DMEM (10% FBS, 1% L-Glutamine, 1% Penicillin/Streptomycin). Cells were released from the flask with 3 ml of trypsin followed by addition of 7 ml of DMEM to neutralize the trypsin. Cells were mixed by pipetting up and down with 10 ml serological pipette. To a 3 ml aliquot of the cell mixture, 6 ml of DMEM (prewarmed to 37° C.) was added followed by thorough mixing by picking up the entire 9 mls using a repeat pipettor, and slowly pipetting out against the wall of container. This was repeated this ten times to ensure the mixture in homogenous. 100 μL of cells were then added to each pre-siliconized 1.7 ml Eppindorf tubes (Costar #3207) followed by a 60 min incubation at 37° C. and 5% CO2. This incubation was performed in 20-tube, round, floating racks (VWR #60986-100), which enable a quick transfer of the samples to a water bath, and the ability to mix several samples simultaneously. Following the incubation, 1 μL of the compound in DMSO was added (or just DMSO for controls). The cells were mixed before and after adding the compound, by a brief (and light) vortexing. The compounds were added while the cells were in the 37° C. water bath, followed by a 10 min incubation at 37° C. and 5% CO2. […] The 4-4 cells receive the IBMX to a final concentration of 500 μM IBMX. […]

Candida = experiment: morphological transition essential for pathogenesis, Candida; format: cell-based
Cryptococcus = experiment: morphological transition essential for pathogenesis, Cryptococcus; format: cell-based
human sAC [4] = target: T1, human sAC; experiment: in vitro adenylyl cyclase assay with purified human sAC protein; format: biochemical; conditions: 100 μM of compound; calcium and bicarbonate stimulated; activation instead of inhibition
Method: Purified human sAC protein was used in an in vitro adenylyl cyclase assay. Purification of the protein is described in detail in Litvin et al. 2003. […] This paper also describes the general conditions for a sAC cyclase assay. The specific conditions for the in vitro assay are as follows.
An aliquot of the master mixture was added to the purified human sAC. The assay mixture also included the indicated concentration of KH compound, or an equivalent volume of vehicle (i.e., DMSO) as control. The reaction was started by adding 5 mM ATP (total assay volume=100 μL). […] Stimulated assay conditions involve adding 40 mM bicarbonate and 5 mM CaCl2 to the above master mixture.
Cyclic AMP levels were measured in each sample using the Correlate-EIA Direct Cyclic AMP assay kit from Assay Designs as per manufacturers instructions.

COc1cc(/C=N/NC(=O)CSc2nc3ccccc3[nH]2)ccc1O [KH7.15]
effect on adenylyl cyclase activity in whole cell lysate [1]: no effect

C/C(=N\NC(=O)CSc1nc2ccccc2[nH]1)c1ccccc1 [KH7.108]
remark on cellular toxicity, 293T cells [2]: may be cellular toxicity | remark on cellular toxicity, 4-4 cells (human sAC [3]): may be cellular toxicity

CC(Sc1nc2ccccc2[nH]1)C(=O)N/N=C/c1cc(Br)ccc1O (centres unmarked) [KH7]
morphological transition essential for pathogenesis (Candida): blocked | stimulation of AC activity in the whole cell lysate ([1]; 100 μM): 1.5-2 fold | morphological transition essential for pathogenesis (Cryptococcus): blocked

Cc1ccc(Cn2c(SCC(=O)N/N=C/c3ccncc3)nc3ccccc32)cc1 [KH7.142]
Activation, printed in column % Inhibition (100 μM), stimulated human sAC (human sAC [4]): Activation @ 100

O=C(CSc1nc2ccccc2[nH]1)N/N=C/c1ccccn1 [KH7.14]
effect on adenylyl cyclase activity in whole cell lysate [1]: no effect
